Reference: PubChem BioAssay (NCI)
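Test compounds were applied to cells in 96-well plates for 48 hours at 5 doses. TGI: concentration producing complete growth inhibition.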

Experiments:
Experiment in all cases: NCI-60 cell line screen, 48 h
786-0 renal = system: 786-0 renal
A498 renal = system: A498 renal
A549 NSCLC = system: A549 NSCLC
ACHN renal = system: ACHN renal
BT-549 breast = system: BT-549 breast
CAKI-1 renal = system: CAKI-1 renal
CCRF-CEM leukemia = system: CCRF-CEM leukemia
COLO 205 colon = system: COLO 205 colon
DU-145 prostate = system: DU-145 prostate
EKVX NSCLC = system: EKVX NSCLC
HCC-2998 colon = system: HCC-2998 colon
HCT-116 colon = system: HCT-116 colon
HCT-15 colon = system: HCT-15 colon
HL-60(TB) leukemia = system: HL-60(TB) leukemia
HOP-62 NSCLC = system: HOP-62 NSCLC
HOP-92 NSCLC = system: HOP-92 NSCLC
HS 578T breast = system: HS 578T breast
HT29 colon = system: HT29 colon
IGROV1 ovarian = system: IGROV1 ovarian
K-562 leukemia = system: K-562 leukemia
KM12 colon = system: KM12 colon
LOX IMVI melanoma = system: LOX IMVI melanoma
M14 melanoma = system: M14 melanoma
MALME-3M melanoma = system: MALME-3M melanoma
MCF7 breast = system: MCF7 breast
MDA-MB-231 breast = system: MDA-MB-231 breast
MDA-MB-435 = system: MDA-MB-435
MDA-N = system: MDA-N
MOLT-4 leukemia = system: MOLT-4 leukemia
NCI-H226 lung = system: NCI-H226 lung
NCI-H23 lung = system: NCI-H23 lung
NCI-H460 lung = system: NCI-H460 lung
NCI-H522 lung = system: NCI-H522 lung
NCI/ADR-RES ovarian = system: NCI/ADR-RES ovarian
OVCAR-3 ovarian = system: OVCAR-3 ovarian
OVCAR-4 ovarian = system: OVCAR-4 ovarian
OVCAR-5 ovarian = system: OVCAR-5 ovarian
OVCAR-8 ovarian = system: OVCAR-8 ovarian
PC-3 prostate = system: PC-3 prostate
RPMI-8226 leukemia = system: RPMI-8226 leukemia
RXF 393 renal = system: RXF 393 renal
SF-268 CNS = system: SF-268 CNS
SF-295 CNS = system: SF-295 CNS
SF-539 CNS = system: SF-539 CNS
SK-MEL-2 melanoma = system: SK-MEL-2 melanoma
SK-MEL-28 melanoma = system: SK-MEL-28 melanoma
SK-MEL-5 melanoma = system: SK-MEL-5 melanoma
SK-OV-3 ovarian = system: SK-OV-3 ovarian
SN12C renal = system: SN12C renal
SNB-19 CNS = system: SNB-19 CNS
SNB-75 CNS = system: SNB-75 CNS
SR leukemia = system: SR leukemia
SW-620 colon = system: SW-620 colon
T-47D breast = system: T-47D breast
TK-10 renal = system: TK-10 renal
U251 CNS = system: U251 CNS
UACC-257 melanoma = system: UACC-257 melanoma
UACC-62 melanoma = system: UACC-62 melanoma
UO-31 renal = system: UO-31 renal

With CC1CCC(O)/C=C/C(=O)OC(C)C(O)/C=C/C(=O)O1 (centres undefined) the TGI (786-0 renal) was > 100 µM, the TGI (A498 renal) was > 100 µM and the TGI (A549 NSCLC) was > 100 µM. The TGI (ACHN renal) was > 100 µM, the TGI (BT-549 breast) was > 100 µM and the TGI (CAKI-1 renal) was > 100 µM. The TGI (CCRF-CEM leukemia) was > 79.9 µM, the TGI (COLO 205 colon) was > 100 µM and the TGI (DU-145 prostate) was > 100 µM. For the same compound, the TGI (EKVX NSCLC) was > 100 µM, the TGI (HCC-2998 colon) was > 100 µM and the TGI (HCT-116 colon) was > 100 µM. For the same compound, the TGI (HCT-15 colon) was > 100 µM, the TGI (HL-60(TB) leukemia) was > 79.5 µM and the TGI (HOP-62 NSCLC) was > 100 µM. The TGI (HOP-92 NSCLC) was > 100 µM, the TGI (HS 578T breast) was > 100 µM and the TGI (HT29 colon) was > 100 µM. The TGI (IGROV1 ovarian) was > 100 µM, the TGI (K-562 leukemia) was > 100 µM and the TGI (KM12 colon) was > 100 µM. For the same compound, the TGI (LOX IMVI melanoma) was > 100 µM, the TGI (M14 melanoma) was > 100 µM and the TGI (MALME-3M melanoma) was > 100 µM. The TGI (MCF7 breast) was > 100 µM, the TGI (MDA-MB-231 breast) was > 100 µM and the TGI (MDA-MB-435) was > 100 µM. For the same compound, the TGI (MDA-N) was > 100 µM, the TGI (MOLT-4 leukemia) was > 100 µM and the TGI (NCI-H226 lung) was > 100 µM. The TGI (NCI-H23 lung) was > 100 µM, the TGI (NCI-H460 lung) was > 100 µM and the TGI (NCI-H522 lung) was > 58.6 µM. For the same compound, the TGI (NCI/ADR-RES ovarian) was > 100 µM, the TGI (OVCAR-3 ovarian) was > 100 µM and the TGI (OVCAR-4 ovarian) was > 100 µM. For the same compound, the TGI (OVCAR-5 ovarian) was > 100 µM, the TGI (OVCAR-8 ovarian) was > 100 µM and the TGI (PC-3 prostate) was > 100 µM. The TGI (RPMI-8226 leukemia) was > 100 µM, the TGI (RXF 393 renal) was > 100 µM and the TGI (SF-268 CNS) was > 100 µM. The TGI (SF-295 CNS) was > 100 µM, the TGI (SF-539 CNS) was > 100 µM and the TGI (SK-MEL-2 melanoma) was > 100 µM. For the same compound, the TGI (SK-MEL-28 melanoma) was > 100 µM, the TGI (SK-MEL-5 melanoma) was > 100 µM and the TGI (SK-OV-3 ovarian) was > 100 µM. The TGI (SN12C renal) was > 100 µM, the TGI (SNB-19 CNS) was > 100 µM and the TGI (SNB-75 CNS) was > 100 µM. For the same compound, the TGI (SR leukemia) was > 100 µM, the TGI (SW-620 colon) was > 100 µM and the TGI (T-47D breast) was > 100 µM. The TGI (TK-10 renal) was > 100 µM, the TGI (U251 CNS) was > 100 µM and the TGI (UACC-257 melanoma) was > 100 µM. The TGI (UACC-62 melanoma) was > 100 µM and the TGI (UO-31 renal) was > 100 µM.
